Results reported in patent US20210130291A1, “METHODS FOR TREATING DIABETES USING VDAC1 INHIBITORS” (THE NATIONAL INSTITUTE FOR BIOTECHNOLOGY IN THE NEGEV LTD., priority 2016, published 2021).
Entries after “also recorded” stand apart in the source; their conditions may differ.

Tests used:
islets of C57/BL mice = assay: ATP content and GSIS in islets of control C57/BL mice; format: cell-based, mouse; details: VDAC1 antibody 10 nM; for GSIS: others 20 μM (FIG. 7e); for ATP content: others 20 μM (FIG. 7d)
Method: 5 weeks old db/db mice and control (C57/bl) (Janvier Laboratory, France), weighing 18-25 g, were used throughout the experiments. They were given a standard pellet diet (B&K) and tap water ad libitum. The experimental procedures were approved by the Ethics Committee for Animal Research at Lund University. Isolation of pancreatic islets was performed by retrograde injection of a collagenase solution via the bile-pancreatic duct and islets were then collected under a stereomicroscope at room temperature.
(§1) Human pancreatic islets were collected under a stereomicroscope at room temperature and cultured at 5.5 or 20 mM glucose in the absence or presence of test agents for 72 h. Thereafter the islets were washed and preincubated for 30 min at 37° C. in Krebs Ringer bicarbonate buffer, pH 7.4, supplemented with N-2 hydroxyethylpiperazine-N′-2-ethanesulfonic acid (10 mM), 0.1% bovine serum albumin, and 1 mM glucose. Each incubation vial contained 12 islets in 1.0 ml KRB buffer solution and treated with 95% O2 and 5% CO2 to obtain constant pH and oxygenation. After preincubation, the buffer was changed to a medium containing either 1 mM or 16.7 mM glucose. The islets were then incubated for 1 h at 37° C. in a metabolic shaker (30 cycles per min). Immediately after incubation an aliquot of the medium was removed for analysis of insulin and the islets were incubated in acid-ethanol for insulin content determination by radioimmunoassay.
(§2) ATP release from isolated mouse or human islets or from INS-1 cells after transfection with mitochondrial targeted VDAC1 (mtVDAC1) or plasma membrane targeted VDAC1 (plVDAC1) plasmids was determined using a luminometric assay kit according to manufacturer's recommendation (Biovision). After incubation of islets (50/vial) or INS-1 cells for 60 min, an aliquot of the media was removed for subsequent measurements of released ATP. Then the islets or INS-1 cells were washed 3 times and the lysates were used for measurements of ATP and protein contents followed the protocol provided by the vendor.

[1] = molecular target: T1, plasma membrane targeted VDAC1 (plVDAC1) (Mus musculus, UniProt Q60932); assay: ATP release and ATP content of INS-1 cells transfected with plasma membrane targeted VDAC1; format: cell-based; details: plVDAC1-transfected INS-1 cells, 1 h at 1 mM glucose; for ATP release (loss of cellular ATP): VDAC1-ab 10 nM, metformin, AKOS, VBIT-4 20 μM each (FIG. 4c)
T1 construct: expressed in transfected cells; host or cells: INS-1 832/13 cells (rat insulinoma), transient transfection; plasmid a gift from Dr. R. Buettner
Method: as §2
INS-1 cells were transiently transfected with a plasmid encoding plasma membrane targeted VDAC1 (pVDAC1) as described in the Material and Method section herein above and in Example 3 (see also Buettner et al 2000. PNAS 97:3201-3206). After transfection (24-32 h and 2-4 h recovery in normal culture medium, RPMI 1640 with complete supplement) the INS-1 cells were washed followed by preincubation in SAB-buffer (See Material and Method above) containing 2.8 mM glucose. The final 1 h incubation was performed in SAB-buffer containing 1 mM glucose and the VDAC1 inhibitory compounds to be tested. At the end, the cells were lysed using lysis buffer, sonicated and the lysate as well as the incubation medium were analyzed for ATP content using a commercially available kit (Biovision, K354-100). Cellular protein content was analyzed by Pierce™ BCA protein assay kit (Thermo Scientific, USA).

islets from T2D donors = assay: ATP content and GSIS in islets from T2D donors, acute addition of VDAC1 inhibitors; format: cell-based, human; details: for GSIS: T2D islets, acute addition 1 h (FIG. 6f); for islet ATP content: islets from 5 T2D donors and one IGT donor, 1 h, at 1 and 16.7 mM glucose (FIG. 6e)
From the text: Human pancreatic islets were obtained through collaboration between Human Tissue Laboratory within Lund University Diabetes Centre (LUDC) and the Nordic Network for Clinical Islet Transplantation (Prof. Olle Korsgren, Uppsala University, Sweden). Donors were grouped according to HbA1c i.e. less than 6% (ND), between 6% and 6.5% (IGT), higher than 6.5% or history of diabetes (T2D). The human islets (70-90% purity) had been cultured in CMRL 1066 (ICN Biomedicals, Costa Mesa, Calif.) supplemented with 10 mM HEPES, 2 mM L-glutamine, […] gentamicin, […] fungizone (Gibco, BRL, Gaithersburg, Md.), 20 μg/ml ciprofloxacin (Bayer Healthcare, Leverkusen, Germany) and 10 mM nicotinamide at 37° C. (5% CO2) for 1 to 5 days prior to the arrival in the laboratory. The islets were then hand-picked under stereomicroscope prior to use. All procedures using human islets were approved by the ethical committees at Uppsala and Lund Universities, Sweden.
as §1, §2

T1 sequence (Q60932 whole entry): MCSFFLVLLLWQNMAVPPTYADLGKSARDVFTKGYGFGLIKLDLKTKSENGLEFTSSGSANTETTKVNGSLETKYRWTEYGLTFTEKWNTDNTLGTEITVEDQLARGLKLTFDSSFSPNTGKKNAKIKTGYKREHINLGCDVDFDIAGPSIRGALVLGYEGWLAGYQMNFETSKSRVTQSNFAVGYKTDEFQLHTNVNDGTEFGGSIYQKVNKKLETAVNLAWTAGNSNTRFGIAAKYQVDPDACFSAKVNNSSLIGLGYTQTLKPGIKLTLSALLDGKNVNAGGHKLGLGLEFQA

| Compound | GSIS (islets of C57/BL mice) | ATP content (islets of C57/BL mice) | ATP release ([1]; racemate and enantiomers (FIG. 9a), listed as racemic VBIT-4) | cellular ATP content ([1]; racemate and enantiomers (FIG. 9b), listed as racemic VBIT-4) | ATP release (loss of cellular ATP) [1] | GSIS (islets from T2D donors) | islet ATP content (islets from T2D donors) |
| --- | --- | --- | --- | --- | --- | --- | --- |
| O=C(CC(CO)N1CCN(c2ccc(OC(F)(F)F)cc2)CC1)Nc1ccc(Cl)cc1 (racemic) [VBIT-4, N-(4-chlorophenyl)-4-hydroxy-3-(4-(4-(trifluoromethoxy)phenyl)-piperazin-1-yl)butanamide] | do not affect | do not affect | efficiently inhibit ATP release; also recorded: no discernible difference | increase cellular ATP content; also recorded: intermediate between that of its enantiomers 1 and 2 | prevented; also recorded: rapidly inhibited | increased in parallel with the improved ATP generation | increased islet ATP content |
| CN(C)C(=N)N=C(N)N [metformin] | do not affect | do not affect |  |  | prevented; also recorded: rapidly inhibited | increased in parallel with the improved ATP generation | increased islet ATP content |
